# Experimental data from PubChem BioAssay AID330 (DTP/NCI, 2004).
# Several values for one entry are separate records, joined by “and”; a condition that tells them apart may be missing. Equal values may be shown once. Inconclusive results and toxic doses are left out.
# Tested on: P388 leukemia ip, CD2F1 mice, survival T/C
# Assay: NCI In Vivo Anticancer Drug Screen. Data for tumor model P388 Leukemia (intraperitoneal) in CD2F1 (CDF1) mice
# Conditions: endpoint: median survival time, higher = longer survival
# In short: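 Mice carrying the transplanted tumor received test compound or vehicle. Survival was recorded in each group, and the value is the treated-group measurement divided by that of the vehicle-treated control group.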
# [1] = dose: 50.0 mg/kg/injection, schedule: Q01DX005 (ip), vehicle: Klucel (hydroxypropylcellulose) (HPC)
# [2] = dose: 100.0 mg/kg/injection, schedule: Q01DX005 (ip), vehicle: Klucel (hydroxypropylcellulose) (HPC)
# [3] = dose: 200.0 mg/kg/injection, schedule: Q01DX005 (ip), vehicle: Klucel (hydroxypropylcellulose) (HPC)
# [4] = dose: 50.0 mg/kg/injection, schedule: Q01DX009 (ip), vehicle: saline with Tween-80
# [5] = dose: 100.0 mg/kg/injection, schedule: Q01DX009 (ip), vehicle: saline with Tween-80
smiles,measurement,setting,value
O=C1c2ccccc2C(=O)N1/N=[N+](\[O-])N1Cc2ccccc2C1,T/C,"dose: 25.0 mg/kg/injection, schedule: Q01DX005 (ip), vehicle: Klucel (hydroxypropylcellulose) (HPC)",97 % of control
same,T/C,[1],101 % of control
same,T/C,[2],99 % of control
same,T/C,[3],99 % of control
CCN(CC)c1ccc(Cc2ccc(N(CC)CC)c3cccnc23)c2ncccc12,T/C,[1],100 % of control
same,T/C,[2],99 % of control
same,T/C,[3],98 % of control
O=C(NC(CCS(=O)(=O)NCc1ccc(S(=O)(=O)F)cc1)C(=O)OCc1ccccc1)OCc1ccccc1 (centres undefined),T/C,"dose: 12.5 mg/kg/injection, schedule: Q01DX009 (ip), vehicle: other",90 % of control
same,T/C,"dose: 25.0 mg/kg/injection, schedule: Q01DX009 (ip), vehicle: other",89 % of control
same,T/C,"dose: 100.0 mg/kg/injection, schedule: Q01DX009 (ip), vehicle: other",102 % of control
same,T/C,"dose: 200.0 mg/kg/injection, schedule: Q01DX009 (ip), vehicle: other",98 % of control
C[N+](C)(N)Cc1nc(-c2ccc(Cl)cc2)no1,T/C,"dose: 50.0 mg/kg/injection, schedule: Q01DX009 (ip), vehicle: saline",98 % of control
same,T/C,"dose: 100.0 mg/kg/injection, schedule: Q01DX009 (ip), vehicle: saline",93 % of control
COc1c2occc2cc2ccc(=O)oc12,T/C,"dose: 8.0 mg/kg/injection, schedule: Q01DX009 (ip), vehicle: saline with Tween-80",89 % of control
same,T/C,"dose: 11.0 mg/kg/injection, schedule: Q01DX009 (ip), vehicle: saline with Tween-80",111 % of control
same,T/C,"dose: 16.0 mg/kg/injection, schedule: Q01DX009 (ip), vehicle: saline with Tween-80",87 % of control
same,T/C,"dose: 22.0 mg/kg/injection, schedule: Q01DX009 (ip), vehicle: saline with Tween-80",102 % of control
same,T/C,"dose: 25.0 mg/kg/injection, schedule: Q01DX009 (ip), vehicle: saline with Tween-80",121 % of control
same,T/C,"dose: 32.0 mg/kg/injection, schedule: Q01DX009 (ip), vehicle: saline with Tween-80",100 % of control
same,T/C,"dose: 44.0 mg/kg/injection, schedule: Q01DX009 (ip), vehicle: saline with Tween-80",104 % of control
same,T/C,[4],116 % of control
same,T/C,"dose: 64.0 mg/kg/injection, schedule: Q01DX009 (ip), vehicle: saline with Tween-80",88 % of control
same,T/C,"dose: 88.0 mg/kg/injection, schedule: Q01DX009 (ip), vehicle: saline with Tween-80",107 % of control
same,T/C,[5],117 % of control
same,T/C,"dose: 128.0 mg/kg/injection, schedule: Q01DX009 (ip), vehicle: saline with Tween-80",106 % of control
same,T/C,"dose: 256.0 mg/kg/injection, schedule: Q01DX009 (ip), vehicle: saline with Tween-80",94 % of control
O=C(O)C1C(C(=O)O)C2(Cl)C(Cl)=C(Cl)C1(Cl)C2(Cl)Cl.[Co] (centres undefined),T/C,"dose: 50.0 mg/kg/injection, schedule: Q01DX001 (ip), vehicle: saline",109 % of control
same,T/C,"dose: 100.0 mg/kg/injection, schedule: Q01DX001 (ip), vehicle: saline",109 % of control
same,T/C,"dose: 200.0 mg/kg/injection, schedule: Q01DX001 (ip), vehicle: saline",109 % of control
CCOC(=O)CCC1=C(C)c2cc3[n-]c(cc4nc(cc5[n-]c(cc1n2)c(CCC(=O)OCC)c5C)C=C4C)cc3C.[Ni+2],T/C,[1],96 % of control
same,T/C,[2],92 % of control
CCOC(=O)[C@]1(Br)CC[C@]1(Br)C(=O)OCC,T/C,[4],106 % of control and 121 % of control
same,T/C,[5],112 % of control and 114 % of control
same,T/C,"dose: 200.0 mg/kg/injection, schedule: Q01DX009 (ip), vehicle: saline with Tween-80",117 % of control and 122 % of control
same,T/C,"dose: 400.0 mg/kg/injection, schedule: Q01DX009 (ip), vehicle: saline with Tween-80",123 % of control
c1ccc2c(c1)[nH]c1cc3ccncc3cc12,T/C,"dose: 50.0 mg/kg/injection, schedule: Q04DX003 (ip), vehicle: saline with Tween-80",94 % of control
same,T/C,"dose: 100.0 mg/kg/injection, schedule: Q04DX003 (ip), vehicle: saline with Tween-80",91 % of control
same,T/C,"dose: 200.0 mg/kg/injection, schedule: Q04DX003 (ip), vehicle: saline with Tween-80",87 % of control
O=S(=O)(Nc1nccs1)c1ccc(N=Cc2c3ccccc3nc3cc(Cl)ccc23)cc1,T/C,"dose: 50.0 mg/kg/injection, schedule: Q01DX005 (ip), vehicle: saline with Tween-80",94 % of control
same,T/C,"dose: 100.0 mg/kg/injection, schedule: Q01DX005 (ip), vehicle: saline with Tween-80",93 % of control
same,T/C,"dose: 200.0 mg/kg/injection, schedule: Q01DX005 (ip), vehicle: saline with Tween-80",96 % of control
CCc1ncnc2cc(OCC3CO3)c(OC)cc12 (centres undefined),T/C,"dose: 6.25 mg/kg/injection, schedule: Q01DX005 (ip), vehicle: saline",114 % of control
same,T/C,"dose: 25.0 mg/kg/injection, schedule: Q01DX005 (ip), vehicle: saline",155 % of control and 158 % of control
same,T/C,"dose: 50.0 mg/kg/injection, schedule: Q01DX005 (ip), vehicle: saline",154 % of control and 158 % of control and 182 % of control
